The term Papp denotes the rate of passage across a membrane or cell layer, normalised by area and donor concentration. By solubility is commonly meant how much of the substance goes into solution per volume. Higher therefore signals a readily soluble substance.

Converted amounts (≈) assume the structure as drawn. The source made the active and inactive calls. The calls are words filed in the database; no cut-off is given here. Square brackets hold non-standard residues; d marks the D form. Peptide text beside a SMILES is read from it. NMeF = CN[C@@H](Cc1ccccc1)C(=O)O; NMeI = CC[C@H](C)[C@H](NC)C(=O)O; NMeL = CN[C@@H](CC(C)C)C(=O)O; NMeV = CN[C@H](C(=O)O)C(C)C; NMeA = CN[C@@H](C)C(=O)O; Sar = CNCC(=O)O

The values below come from ChEMBL document CHEMBL1212878, “In vitro ADMET and physicochemical investigations of poly-N-methylated peptides designed to inhibit Abeta aggregation” (Bioorg Med Chem, 2010).

Data set [1] is described as follows: Chemical stability of the compound assessed as compound remaining after enzymatic degradation after 24 hrs. The note with it: read-out: Activity. In kind it is physicochemical.
A short description of data set [2]: Apparent permeability across rat 2/4/A1 cells in absence of pronase inhibitor. In kind it is ADME, cell-based.
The nature of data set [3]: Aqueous solubility of the compound at pH 7.4. In kind it is physicochemical.
The nature of data set [4]: Cytotoxicity against rat 2/4/A1 cells assessed as cell viability up to 200 uM after 4 hrs by MTT assay. The note with it: read-out: Activity. In kind it is cell-based. For orientation: Tetrazolium dyes change colour on reduction, which living cells bring about.
A short description of data set [5]: Inhibition of Amyloid beta aggregation.

Consider `CC[C@H](C)[C@@H](C(=O)NCC(=O)N(C)[C@@H](CC(C)C)C(=O)N[C@@H](CCSC)C(=O)N(C)[C@H](C(=O)NCC(N)=O)C(C)C)N(C)C(C)=O` (Ac-[NMeI]G[NMeL]M[NMeV]G-NH2), for which the remaining at 24 h in data set [1] turned out to be 94%. In data set [2], the Papp was found to be 1.6 ×10⁻⁶ cm/s. Moreover, the solubility in data set [3] was greater than 2500 µM. For the same compound, the viability at 4 h in data set [4] is 95%.
Turning to `CC[C@H](C)[C@@H](C(=O)N(C)CC(=O)N(C)[C@@H](CC(C)C)C(=O)N[C@@H](CCSC)C(=O)N(C)[C@H](C(=O)N(C)CC(N)=O)C(C)C)N(C)C(C)=O` (Ac-[NMeI][Sar][NMeL]M[NMeV][Sar]-NH2), in data set [1], the remaining at 24 h was found to be 100%. For the same compound, the Papp in data set [2] came to 1.4 ×10⁻⁶ cm/s. The compound also gave a solubility in data set [3] greater than 2500 µM. Also, in data set [4], the viability at 4 h came to 95%.
For the compound `CC(=O)N[C@@H](CCCCN)C(=O)N(C)[C@@H](CC(C)C)C(=O)N(C)[C@H](C(=O)N(C)[C@@H](Cc1ccccc1)C(=O)N(C)[C@@H](Cc1ccccc1)C(=O)N(C)[C@@H](C)C(N)=O)C(C)C` (Ac-K[NMeL][NMeV][NMeF][NMeF][NMeA]-NH2), the remaining at 24 h in data set [1] is 98%. Further, the apparent permeability (Papp) in data set [2] was 2.3 ×10⁻⁶ cm/s. This compound returned a solubility in data set [3] of 899 µM (≈ 751 µg/mL). The viability at 4 h in data set [4] was 95%.
With `CC(=O)N[C@@H](CCCCN)C(=O)N(C)[C@@H](CC(C)C)C(=O)N[C@H](C(=O)N(C)[C@@H](Cc1ccccc1)C(=O)N[C@@H](Cc1ccccc1)C(=O)N(C)[C@@H](C)C(N)=O)C(C)C` (Ac-K[NMeL]V[NMeF]F[NMeA]-NH2), the remaining at 24 h in data set [1] is 94%. In data set [3], the solubility was greater than 2500 µM. Further, the viability at 4 h in data set [4] is 95%.
Turning to Ac-IGLMVG-NH2, in data set [1], the remaining at 24 h worked out at 20%. Moreover, the apparent permeability coefficient (Papp) in data set [2] stood at 3.1 ×10⁻⁶ cm/s. Moreover, in data set [3], the solubility was 3 µM. The viability at 4 h in data set [4] worked out at 95%.
Take `CC(=O)N[C@@H](CCCCN)C(=O)N[C@@H](CC(C)C)C(=O)N(C)[C@H](C(=O)N[C@@H](Cc1ccccc1)C(=O)N(C)[C@@H](Cc1ccccc1)C(=O)N[C@@H](C)C(N)=O)C(C)C` (Ac-KL[NMeV]F[NMeF]A-NH2): the remaining at 24 h in data set [1] was 96%. The compound also gave a solubility in data set [3] of 1580 µM (≈ 1260 µg/mL). Also, the viability at 4 h in data set [4] turned out to be 95%.
With `CC[C@H](C)[C@H](NC(C)=O)C(=O)N(C)CC(=O)N[C@@H](CC(C)C)C(=O)N[C@@H](CCSC)C(=O)N[C@H](C(=O)N(C)CC(N)=O)C(C)C` (Ac-I[Sar]LMV[Sar]-NH2), the remaining at 24 h in data set [1] was 60%. Also, the apparent permeability (Papp) in data set [2] was determined as 2.2 ×10⁻⁶ cm/s. For the same compound, the solubility in data set [3] is greater than 2500 µM. Also, the viability at 4 h in data set [4] was determined as 95%.
With Ac-KLVFFA-NH2, in data set [5], the inhibition entry was “Active”. Further, in data set [1], the remaining at 24 h was 36%. In addition, in data set [2], the apparent permeability (Papp) turned out to be 2.8 ×10⁻⁶ cm/s. The compound further showed a solubility in data set [3] of 32 µM. Also, the viability at 4 h in data set [4] worked out at 95%.
